Counter-ions that a name gives are not always drawn.
Key:
[1] = molecular target: human RORγt LBD (Homo sapiens (Human), UniProt P51449); test: RORγt reporter assay (GAL4-RORγt LBD luciferase, HEK293T cells); type: cell-based; settings: for RORγt reporter Assay, % inhibition @ 6 μM: HEK293T cells; for inhibition at 6 µM: HEK-293T, read-out: RORγt reporter Assay, % inhibition @ 6 μM, 6 μM, HEK293T cells
From the text: A reporter assay was used to test functional activity of RORγt modulatory compounds on transcriptional activation driven by the RORγt LBD. Cells used in the assay were co-transfected with two constructs. The first construct, pBIND-RORγt LBD, contained the wild type human RORγt LBD fused to the DNA binding domain of the GAL4 protein. The second construct, pGL4.31 (Promega Cat no. C935A), contained multiple GAL4 responsive DNA elements upstream of firefly luciferase. […] The mutant construct was called pBIND-RORγt-AF2. […] The pBIND vector contains the GAL4 DNA Binding Domain (GAL4 DBD) and the renilla luciferase gene under control of the SV40 promoter. Renilla luciferase expression serves as a control for transfection efficiency and cell viability.
The reporter assay was performed by transiently transfecting HEK293T cells with 5 μg of pBIND-RORγt LBD or pBIND-RORγt LBD-AF2 and 5 μg pGL4.31 (Promega Cat no. C935A) using Fugene 6 (Invitrogen Cat no. E2691) at a 1:6 ratio of DNA: Fugene 6 in a T-75 flask in which cells were at least 80% confluent. Twenty four hours after bulk transfection, cells were plated into 96-well plates at 50,000 cells/well in phenol-red free DMEM containing 5% Lipid Reduced FCS and Pen/Strep. Six hours after plating, cells were treated with compounds for 24 hours. Media was removed and cells were lysed with 50 μL 1x Glo Lysis Buffer (Promega). Dual Glo Luciferase Reagent (50 μL/well) was then added and firefly luciferase luminescence was read on an Envision after a ten minute incubation. Finally, Stop and Glo reagent (50 μL/well) was added and renilla luciferase luminescence was read on an Envision after a ten minute incubation. To calculate the effect of compounds on RORγt activity, the ratio of firefly to renilla luciferase was determined and plotted against compound concentration. Agonist compounds increase RORγt-driven luciferase expression, and antagonist or inverse agonist compounds decrease luciferase expression.

[2] = test system: IL-17 production by CD4 T cells; test: Human Th17 assay; type: cell-based; settings: IL-17 in supernatant after 3 days, human CD4+ T cells under Th17 differentiation
From the text: The human Th17 assay tests the effect of RORγt modulatory compounds on IL-17 production by CD4 T cells under conditions which favor Th17 differentiation.
Total CD4^+ T cells were isolated from the peripheral blood mononuclear cells (PBMC) of healthy donors using a CD4^+ T cell isolation kit II, following the manufacturer's instructions (Miltenyi Biotec). Cells were resuspended in a medium of RPMI-1640 supplemented with 10% fetal bovine serum, penicillin, streptomycin, glutamate, and β-mercaptoethanol and were added to 96-well plates at 1.5×10^5 per 100 μL per well. 50 μL of compound at titrated concentrations in DMSO were added into each well at final DMSO concentration at 0.2%. Cells were incubated for 1 hour, then 50 μL of Th17 cell differentiation medium was added to each well. The final concentrations of antibodies and cytokines (R&D Systems) in differentiation medium were: 3×10^6/mL anti-CD3/CD28 beads (prepared using human T cell activation/expansion kit, Miltenyi Biotec), 10 μg/mL anti-IL4, 10 μg/mL anti-IFNγ, 10 ng/mL IL113, 10 ng/mL IL23, 50 ng/mL IL6, 3 ng/mL TGFβ and 20 U/mL IL2. Cells were cultured at 37° C. and 5% CO2 for 3 days. Supernatants were collected and the accumulated IL-17 in culture was measured by using MULTI-SPOT® Cytokine Plate following manufacture's instruction (Meso Scale Discovery). The plate was read using Sector Imager 6000, and IL-17 concentration was extrapolated from the standard curve. The IC50s were determined by GraphPad.

Sequence of human RORγt LBD (P51449 258-518): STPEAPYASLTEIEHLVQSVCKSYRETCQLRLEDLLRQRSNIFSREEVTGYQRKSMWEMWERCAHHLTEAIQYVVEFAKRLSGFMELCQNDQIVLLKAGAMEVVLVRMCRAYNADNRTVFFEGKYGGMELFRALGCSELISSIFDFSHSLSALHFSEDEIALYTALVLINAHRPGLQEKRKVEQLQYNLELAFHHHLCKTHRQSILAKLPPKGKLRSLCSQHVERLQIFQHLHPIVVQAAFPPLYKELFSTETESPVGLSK

RORγt reporter Assay, % inhibition @ 6 μM [1]	IC50 [2]	inhibition at 6 µM [1]	Compound	IC50 ([2]; Homo sapiens, CD4+ T, 72 h)
	0.051 µM	92%	CCN(CC)c1nc2ccc(C(O)(c3ccc(C(F)(F)F)nc3)c3cncn3C)cc2c(C(F)(F)F)c1Oc1ccc(Cl)cc1 (single isomer, unassigned) [Example 27b, (3-(4-Chlorophenoxy)-2-(diethylamino)-4-(trifluoromethyl)quinolin-6-yl)(1-methyl-1H-imidazol-5-yl)(6-(trifluoromethyl)pyridin-3-yl)methanol]	
89%	0.49 µM		CCN(CC)c1nc2ccc(C(O)(c3ccc(C(F)(F)F)nc3)c3cncn3C)cc2c(C(F)(F)F)c1Oc1ccc(Cl)cc1 (single isomer, unassigned) [Example 27c, (3-(4-Chlorophenoxy)-2-(diethylamino)-4-(trifluoromethyl)quinolin-6-yl)(1-methyl-1H-imidazol-5-yl)(6-(trifluoromethyl)pyridin-3-yl)methanol]	
	0.064 µM	103%	Cn1cncc1C(O)(c1ccc(C(F)(F)F)nc1)c1ccc2nc(N3CCC3)c(Oc3ccc(Cl)cc3)c(Cl)c2c1 (single isomer, unassigned) [Example 30b, (2-(Azetidin-1-yl)-4-chloro-3-(4-chlorophenoxy)quinolin-6-yl)(1-methyl-1H-imidazol-5-yl)(6-(trifluoromethyl)pyridin-3-yl)methanol]	
97%	0.02 µM		Cn1cncc1C(O)(c1ccc(C(F)(F)F)nc1)c1ccc2nc(N3CCC3)c(Oc3ccc(Cl)cc3)c(Cl)c2c1 (single isomer, unassigned) [Example 30c, (2-(Azetidin-1-yl)-4-chloro-3-(4-chlorophenoxy)quinolin-6-yl)(1-methyl-1H-imidazol-5-yl)(6-(trifluoromethyl)pyridin-3-yl)methanol]	

Second part, the molecule before the results:

Compound	RORγt reporter Assay, % inhibition @ 6 μM [1]	IC50 [2]	inhibition at 6 µM [1]	IC50 ([2]; Homo sapiens, CD4+ T, 72 h)
CCOc1nc2ccc(C(O)(c3ccc(Cl)cc3)c3cncn3C)cc2c(Cl)c1Oc1ccccc1 (single isomer, unassigned) [Example 2a, (4-Chloro-2-ethoxy-3-phenoxyquinolin-6-yl)(4-chlorophenyl)(1-methyl-1H-imidazol-5-yl)methanol.TFA]	88%	0.61 µM		
CCOc1nc2ccc(C(O)(c3ccc(Cl)cc3)c3cncn3C)cc2c(Cl)c1Oc1ccccc1 (single isomer, unassigned) [Example 2b]		0.66 µM	92%	
CCOc1nc2ccc(C(O)(c3ccc(Cl)cc3)c3cncn3C)cc2c(Cl)c1Oc1ccccc1 (single isomer, unassigned) [Example 2c]	92%	0.21 µM		
CCN(CC)c1nc2ccc(C(O)(c3ccc(Cl)cc3)c3cncn3C)cc2c(Cl)c1Oc1ccccc1 (single isomer, unassigned) [Example 3c, (4-Chloro-2-(diethylamino)-3-phenoxyquinolin-6-yl)(4-chlorophenyl)(1-methyl-1H-imidazol-5-yl)methanol]	104%			0.12 µM
CCN(CC)c1nc2ccc(C(O)(c3ccc(OC)nc3)c3cncn3C)cc2c(Cl)c1Oc1ccccc1 (single isomer, unassigned) [Example 5b, (4-Chloro-2-(diethylamino)-3-phenoxyquinolin-6-yl)(6-methoxypyridin-3-yl)(1-methyl-1H-imidazol-5-yl)methanol]			98%	0.085 µM
CCN(CC)c1nc2ccc(C(O)(c3ccc(OC)nc3)c3cncn3C)cc2c(Cl)c1Oc1ccccc1 (single isomer, unassigned) [Example 5c, (4-Chloro-2-(diethylamino)-3-phenoxyquinolin-6-yl)(6-methoxypyridin-3-yl)(1-methyl-1H-imidazol-5-yl)methanol]	104%	0.11 µM		
CCN(CC)c1nc2ccc(C(O)(c3ccc(C(F)(F)F)nc3)c3cncn3C)cc2c(Cl)c1Oc1ccccc1 (single isomer, unassigned) [Example 6b, (4-Chloro-2-(diethylamino)-3-phenoxyquinolin-6-yl)(1-methyl-1H-imidazol-5-yl)(6-(trifluoromethyl)pyridin-3-yl)methanol]		0.05 µM	93%	
CCN(CC)c1nc2ccc(C(O)(c3ccc(C(F)(F)F)nc3)c3cncn3C)cc2c(Cl)c1Oc1ccccc1 (single isomer, unassigned) [Example 6c, (4-Chloro-2-(diethylamino)-3-phenoxyquinolin-6-yl)(1-methyl-1H-imidazol-5-yl)(6-(trifluoromethyl)pyridin-3-yl)methanol]	88%	0.21 µM		
CCN(CC)c1nc2ccc(C(O)(c3ccc(C(F)(F)F)nc3)c3cncn3C)cc2c(Cl)c1Oc1ccc(F)cc1 (single isomer, unassigned) [Example 9b]	81%	0.32 µM		
CCN(CC)c1nc2ccc(C(O)(c3ccc(C(F)(F)F)nc3)c3cncn3C)cc2c(Cl)c1Oc1ccc(F)cc1 (single isomer, unassigned) [Example 9c]	84%	0.092 µM		
CCOc1nc2ccc(C(O)(c3ccc(OC)nc3)c3cncn3C)cc2c(Cl)c1Oc1ccccc1 (single isomer, unassigned) [Example 10b]	97%	0.078 µM		
CCOc1nc2ccc(C(O)(c3ccc(OC)nc3)c3cncn3C)cc2c(Cl)c1Oc1ccccc1 (single isomer, unassigned) [Example 10c]	103%	0.095 µM		
CCOc1nc2ccc(C(O)(c3ccc(C(F)(F)F)nc3)c3cncn3C)cc2c(C(F)(F)F)c1Oc1ccc(Cl)cc1 (single isomer, unassigned) [Example 25b, (3-(4-Chlorophenoxy)-2-ethoxy-4-(trifluoromethyl)quinolin-6-yl)(1-methyl-1H-imidazol-5-yl)(6-(trifluoromethyl)pyridin-3-yl)methanol]	92%			0.44 µM
Cn1cncc1C(O)(c1ccc(C(F)(F)F)nc1)c1ccc2nc(N3CCC3)c(Oc3ccc(C#N)cc3)c(Cl)c2c1 (single isomer, unassigned) [Example 31b, 4-((2-(Azetidin-1-yl)-4-chloro-6-(hydroxy(1-methyl-1H-imidazol-5-yl)(6-(trifluoromethyl)pyridin-3-yl)methyl)quinolin-3-yl)oxy)benzonitrile]		~0.1 µM		
Cn1cncc1C(O)(c1ccc(C(F)(F)F)nc1)c1ccc2nc(N3CCC3)c(Oc3ccc(C#N)cc3)c(Cl)c2c1 (single isomer, unassigned) [Example 31c, 4-((2-(Azetidin-1-yl)-4-chloro-6-(hydroxy(1-methyl-1H-imidazol-5-yl)(6-(trifluoromethyl)pyridin-3-yl)methyl)quinolin-3-yl)oxy)benzonitrile]		0.017 µM		
Cn1cncc1C(O)(c1ccc(C(F)(F)F)nc1)c1ccc2nc(N3CCCC3)c(Oc3ccc(C#N)cc3)c(Cl)c2c1 (stereo not drawn) [Example 33, 4-((4-Chloro-6-(hydroxy(1-methyl-1H-imidazol-5-yl)(6-(trifluoromethyl)pyridin-3-yl)methyl)-2-(pyrrolidin-1-yl)quinolin-3-yl)oxy)benzonitrile]				0.088 µM
CN(c1ccccc1)c1c(Cl)nc2ccc(C(O)(c3cccnc3)c3cccc(Cl)c3)cc2c1Cl (stereo not drawn) [Example 35, (3-Chlorophenyl)(2,4-dichloro-3-(methyl(phenyl)amino)quinolin-6-yl)(pyridin-3-yl)methanol]				~1 µM
CCN(c1ccccc1)c1c(Cl)nc2ccc(C(O)(c3cccnc3)c3cccc(Cl)c3)cc2c1Cl (stereo not drawn) [Example 39, (3-Chlorophenyl)(2,4-dichloro-3-(ethyl(phenyl)amino)quinolin-6-yl)(pyridin-3-yl)methanol]				> 6 µM

— US9303015B2, “Heteroaryl linked quinolinyl modulators of RORγt” (Janssen Pharmaceutica NV, priority 2012, dated 2016)
